# Reference: PubChem BioAssay (NCI)
#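 A five-concentration, 48-hour dose response in 96-well plates underlies each endpoint, interpolated linearly between surrounding concentrations. Abbreviation: GI50, concentration required for 50% inhibition of growth. TGI is the concentration that stops growth completely.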
# Columns and labels:
# Assay in all cases: NCI tumour cell line growth inhibition, 48 h
# IGROV1 ovarian = system: IGROV1 ovarian
# SF-539 CNS = system: SF-539 CNS
# A549 NSCLC = system: A549 NSCLC
# M14 melanoma = system: M14 melanoma
# CAKI-1 renal = system: CAKI-1 renal
# RXF 393 renal = system: RXF 393 renal
# OVCAR-8 ovarian = system: OVCAR-8 ovarian
# HCC-2998 colon = system: HCC-2998 colon
# SK-MEL-2 melanoma = system: SK-MEL-2 melanoma
# BT-549 breast = system: BT-549 breast
smiles,measurement,setting,value
COc1cc2c(c(OC)c1OC)C(=O)NCCC2,TGI,IGROV1 ovarian,> 100 µM
same,TGI,SF-539 CNS,> 100 µM
same,TGI,A549 NSCLC,> 100 µM
same,TGI,M14 melanoma,> 100 µM
same,TGI,CAKI-1 renal,> 100 µM
same,TGI,RXF 393 renal,> 100 µM
same,TGI,OVCAR-8 ovarian,> 100 µM
same,TGI,HCC-2998 colon,> 100 µM
same,TGI,SK-MEL-2 melanoma,> 100 µM
N#CCc1cccc(CC#N)c1Br,TGI,IGROV1 ovarian,> 100 µM
same,TGI,SF-539 CNS,> 100 µM
same,TGI,A549 NSCLC,> 100 µM
same,TGI,M14 melanoma,> 100 µM
same,TGI,CAKI-1 renal,> 100 µM
same,TGI,RXF 393 renal,93.7 µM
same,TGI,OVCAR-8 ovarian,> 100 µM
same,TGI,SK-MEL-2 melanoma,> 100 µM
C[C@H]1CC[P+](C)(c2ccccc2)C1 (stereo partly specified),TGI,IGROV1 ovarian,> 100 µM
same,TGI,SF-539 CNS,> 100 µM
same,TGI,A549 NSCLC,> 100 µM
same,TGI,M14 melanoma,> 100 µM
same,TGI,RXF 393 renal,> 100 µM
same,TGI,OVCAR-8 ovarian,> 100 µM
same,TGI,HCC-2998 colon,> 100 µM
same,TGI,SK-MEL-2 melanoma,> 100 µM
Cc1cc(C)nc(NS(=O)(=O)c2ccc(Nc3c4ccccc4nc4c(C(=O)NCCN(C)C)cccc34)cc2)n1,TGI,IGROV1 ovarian,16.4 µM
same,TGI,SF-539 CNS,14.9 µM
same,TGI,A549 NSCLC,16.1 µM
same,TGI,M14 melanoma,20.4 µM
same,TGI,RXF 393 renal,20.2 µM
same,TGI,OVCAR-8 ovarian,20.5 µM
same,TGI,SK-MEL-2 melanoma,19.1 µM
O=C1OC(=O)C([Se]c2ccccc2)=C1[Se]c1ccccc1,TGI,IGROV1 ovarian,> 100 µM
same,TGI,SF-539 CNS,> 100 µM
same,TGI,A549 NSCLC,> 100 µM
same,TGI,M14 melanoma,> 100 µM
same,TGI,CAKI-1 renal,> 100 µM
same,TGI,RXF 393 renal,> 100 µM
same,TGI,OVCAR-8 ovarian,> 100 µM
O=C1C(=O)C2(CC1S(=O)(=O)c1ccccc1)c1ccccc1-c1ccccc12 (stereo unspecified),TGI,IGROV1 ovarian,47.9 µM
same,TGI,A549 NSCLC,63.7 µM
same,TGI,M14 melanoma,28.4 µM
same,TGI,CAKI-1 renal,61.6 µM
same,TGI,RXF 393 renal,35.6 µM
same,TGI,OVCAR-8 ovarian,34.5 µM
same,TGI,HCC-2998 colon,30.1 µM
same,TGI,SK-MEL-2 melanoma,33.8 µM
COc1cc(OC)c2c(=O)c3cccc([N+](=O)[O-])c3n(C)c2c1,TGI,IGROV1 ovarian,> 100 µM
same,TGI,SF-539 CNS,> 100 µM
same,TGI,A549 NSCLC,> 100 µM
same,TGI,M14 melanoma,> 100 µM
same,TGI,CAKI-1 renal,> 100 µM
same,TGI,RXF 393 renal,> 100 µM
same,TGI,OVCAR-8 ovarian,> 100 µM
same,TGI,SK-MEL-2 melanoma,> 100 µM
O=C(O)c1ccccc1NCn1c(=S)sc2ccccc21,TGI,IGROV1 ovarian,> 100 µM
same,TGI,SF-539 CNS,48.9 µM
same,TGI,A549 NSCLC,> 100 µM
same,TGI,M14 melanoma,> 100 µM
same,TGI,CAKI-1 renal,> 100 µM
same,TGI,RXF 393 renal,> 100 µM
same,TGI,OVCAR-8 ovarian,> 100 µM
same,TGI,SK-MEL-2 melanoma,> 100 µM
same,TGI,BT-549 breast,> 100 µM
Cc1ccc(S(=O)C(C)C(Cl)c2ccccc2)cc1 (stereo unspecified),TGI,IGROV1 ovarian,> 100 µM
same,TGI,SF-539 CNS,> 100 µM
same,TGI,M14 melanoma,> 100 µM
same,TGI,CAKI-1 renal,> 100 µM
same,TGI,RXF 393 renal,> 100 µM
same,TGI,OVCAR-8 ovarian,> 100 µM
same,TGI,HCC-2998 colon,> 100 µM
same,TGI,SK-MEL-2 melanoma,> 100 µM
C=C1CC[C@H]2C(C)=CC[C@H]3C(=C)C(=O)O[C@@H]3[C@@H]12,TGI,IGROV1 ovarian,> 100 µM
same,TGI,SF-539 CNS,> 100 µM
same,TGI,A549 NSCLC,> 100 µM
same,TGI,M14 melanoma,> 100 µM
same,TGI,CAKI-1 renal,> 100 µM
same,TGI,OVCAR-8 ovarian,> 100 µM
same,TGI,HCC-2998 colon,> 100 µM
same,TGI,SK-MEL-2 melanoma,> 100 µM
same,TGI,BT-549 breast,> 100 µM
COc1ccc(-c2cc(/C=C/C(=O)c3ccc(N)cc3)[nH]n2)cc1,GI50,IGROV1 ovarian,2.27 µM
same,TGI,IGROV1 ovarian,6.45 µM
same,GI50,SF-539 CNS,1.47 µM
same,TGI,SF-539 CNS,3.48 µM
same,GI50,A549 NSCLC,2.55 µM
same,TGI,A549 NSCLC,10.2 µM
same,GI50,M14 melanoma,2.67 µM
same,TGI,M14 melanoma,6.54 µM
same,GI50,CAKI-1 renal,1.32 µM
same,TGI,CAKI-1 renal,11.1 µM
same,GI50,RXF 393 renal,1.67 µM
same,TGI,RXF 393 renal,4.19 µM
same,GI50,OVCAR-8 ovarian,2.44 µM
same,TGI,OVCAR-8 ovarian,15.4 µM
same,GI50,HCC-2998 colon,1.83 µM
same,TGI,HCC-2998 colon,3.36 µM
same,GI50,BT-549 breast,1.74 µM
same,TGI,BT-549 breast,4.78 µM
O=C1CCC(=O)N1Sc1ccccc1,TGI,IGROV1 ovarian,> 100 µM
same,TGI,SF-539 CNS,> 100 µM
same,TGI,A549 NSCLC,> 100 µM
same,TGI,M14 melanoma,> 100 µM
same,TGI,CAKI-1 renal,> 100 µM
same,TGI,RXF 393 renal,> 100 µM
same,TGI,OVCAR-8 ovarian,> 100 µM
same,TGI,SK-MEL-2 melanoma,> 100 µM
O=C(O)CSc1n[nH]c(-c2ccco2)n1,TGI,IGROV1 ovarian,> 100 µM
same,TGI,SF-539 CNS,> 100 µM
same,TGI,A549 NSCLC,> 100 µM
same,TGI,M14 melanoma,> 100 µM
same,TGI,CAKI-1 renal,> 100 µM
same,TGI,RXF 393 renal,> 100 µM
same,TGI,OVCAR-8 ovarian,> 100 µM
same,TGI,HCC-2998 colon,> 100 µM
same,TGI,SK-MEL-2 melanoma,> 100 µM
Cc1cc(S(N)(=O)=O)c(S/C(=N\NS(=O)(=O)c2ccccc2)c2ccc(Cl)cc2)cc1Cl,GI50,IGROV1 ovarian,> 100 µM
same,TGI,IGROV1 ovarian,> 100 µM
same,GI50,SF-539 CNS,> 100 µM
same,TGI,SF-539 CNS,> 100 µM
same,GI50,A549 NSCLC,> 100 µM
same,TGI,A549 NSCLC,> 100 µM
same,GI50,M14 melanoma,87.9 µM
same,TGI,M14 melanoma,> 100 µM
same,GI50,CAKI-1 renal,> 100 µM
same,TGI,CAKI-1 renal,> 100 µM
same,GI50,OVCAR-8 ovarian,> 100 µM
same,TGI,OVCAR-8 ovarian,> 100 µM
same,GI50,BT-549 breast,> 100 µM
same,TGI,BT-549 breast,> 100 µM
COc1cccc(-c2nc3sccn3c2-c2ccnc(NCCCNS(=O)(=O)c3ccccc3)c2)c1,GI50,IGROV1 ovarian,3.14 µM
same,TGI,IGROV1 ovarian,> 100 µM
same,GI50,SF-539 CNS,5.43 µM
same,TGI,SF-539 CNS,> 100 µM
same,GI50,A549 NSCLC,3.45 µM
same,TGI,A549 NSCLC,> 100 µM
same,GI50,M14 melanoma,3.36 µM
same,TGI,M14 melanoma,> 100 µM
same,GI50,CAKI-1 renal,2.81 µM
same,TGI,CAKI-1 renal,> 100 µM
same,GI50,RXF 393 renal,5.79 µM
same,TGI,RXF 393 renal,> 100 µM
same,GI50,OVCAR-8 ovarian,2.99 µM
same,TGI,OVCAR-8 ovarian,> 100 µM
same,GI50,HCC-2998 colon,4.38 µM
same,TGI,HCC-2998 colon,> 100 µM
same,GI50,SK-MEL-2 melanoma,2.87 µM
same,TGI,SK-MEL-2 melanoma,8.85 µM
O=NNc1ccc(S(=O)(=O)c2ccc3ccccc3c2)cn1,TGI,IGROV1 ovarian,> 100 µM
same,TGI,SF-539 CNS,> 100 µM
same,TGI,A549 NSCLC,> 100 µM
same,TGI,M14 melanoma,> 100 µM
same,TGI,CAKI-1 renal,> 100 µM
same,TGI,OVCAR-8 ovarian,> 100 µM
same,TGI,SK-MEL-2 melanoma,> 100 µM
same,TGI,BT-549 breast,> 100 µM
CN(C)CCN1CCc2c([nH]c3ccccc23)C1c1cccnc1 (stereo unspecified),TGI,IGROV1 ovarian,> 100 µM
same,TGI,SF-539 CNS,> 100 µM
same,TGI,A549 NSCLC,> 100 µM
same,TGI,M14 melanoma,> 100 µM
same,TGI,CAKI-1 renal,> 100 µM
same,TGI,RXF 393 renal,> 100 µM
same,TGI,OVCAR-8 ovarian,> 100 µM
same,TGI,HCC-2998 colon,> 100 µM
CS(=O)(=O)Nc1cc(-c2ccc3ncnc(Nc4cccc(Cl)c4)c3c2)cnc1Cl,GI50,IGROV1 ovarian,0.0784 µM
same,TGI,IGROV1 ovarian,0.476 µM
same,GI50,SF-539 CNS,0.439 µM
same,TGI,SF-539 CNS,3.73 µM
same,GI50,A549 NSCLC,1.11 µM
same,TGI,A549 NSCLC,4.17 µM
same,GI50,M14 melanoma,0.542 µM
same,TGI,M14 melanoma,10.6 µM
same,GI50,CAKI-1 renal,0.299 µM
same,TGI,CAKI-1 renal,7.71 µM
same,GI50,OVCAR-8 ovarian,1.24 µM
same,TGI,OVCAR-8 ovarian,30.3 µM
same,GI50,HCC-2998 colon,0.246 µM
same,TGI,HCC-2998 colon,1.79 µM
same,GI50,SK-MEL-2 melanoma,0.345 µM
same,TGI,SK-MEL-2 melanoma,2.05 µM
same,GI50,BT-549 breast,0.272 µM
same,TGI,BT-549 breast,3.28 µM
Nc1ccccc1C#Cc1ccccc1C#Cc1cccs1,GI50,IGROV1 ovarian,18.4 µM
same,TGI,IGROV1 ovarian,90.8 µM
same,GI50,SF-539 CNS,16.1 µM
same,TGI,SF-539 CNS,32.9 µM
same,GI50,A549 NSCLC,16.9 µM
same,TGI,A549 NSCLC,> 100 µM
same,GI50,M14 melanoma,17.4 µM
same,TGI,M14 melanoma,34.1 µM
same,GI50,CAKI-1 renal,11 µM
same,TGI,CAKI-1 renal,25.1 µM
same,GI50,RXF 393 renal,18.2 µM
same,TGI,RXF 393 renal,> 100 µM
same,GI50,OVCAR-8 ovarian,42.7 µM
same,TGI,OVCAR-8 ovarian,> 100 µM
same,GI50,SK-MEL-2 melanoma,30.2 µM
same,TGI,SK-MEL-2 melanoma,73.5 µM
same,GI50,BT-549 breast,15.9 µM
same,TGI,BT-549 breast,32.1 µM
COc1cc2c3c(n(CCCNCCCNCCCN)c(=O)c2cc1OC)-c1cc2c(cc1C3=O)OCO2,GI50,IGROV1 ovarian,> 100 µM
same,TGI,IGROV1 ovarian,> 100 µM
same,GI50,SF-539 CNS,> 100 µM
same,TGI,SF-539 CNS,> 100 µM
same,GI50,A549 NSCLC,> 100 µM
same,TGI,A549 NSCLC,> 100 µM
same,GI50,M14 melanoma,52 µM
same,TGI,M14 melanoma,> 100 µM
same,GI50,CAKI-1 renal,26.3 µM
same,TGI,CAKI-1 renal,> 100 µM
same,GI50,RXF 393 renal,> 100 µM
same,TGI,RXF 393 renal,> 100 µM
same,GI50,OVCAR-8 ovarian,> 100 µM
same,TGI,OVCAR-8 ovarian,> 100 µM
same,GI50,SK-MEL-2 melanoma,> 100 µM
same,TGI,SK-MEL-2 melanoma,> 100 µM
